Reference: ChEMBL document CHEMBL2216752, “Carnitine palmitoyltransferase (CPT) modulators: a medicinal chemistry perspective on 35 years of research” (J Med Chem, 2011)
Values belong to the compound of their own block, whether it stands above or below them.

What was measured:
Sus scrofa = assay: Reduction in blood glucose in STZ-treated diabetic pig at 10 to 40 umol/kg, iv measured 6 hrs post dose; assay type: functional; design: scale not given: the % may be the effect or the level left
[1] = Inhibition of rat FAO
[2] = Inhibition of human FAO
Cavia porcellus = assay: Reduction in blood glucose in SPF-white inbred guinea pig at 7 to 56 umol/kg, po; assay type: functional
Rattus norvegicus [3] = assay: Reduction in blood glucose in adrenalectomized rat at 25 to 150 umol/kg, po; assay type: functional; design: scale not given: the % may be the effect or the level left
Rattus norvegicus [4] = assay: Reduction in total cholesterol level in fasted Sprague-Dawley rat at 8 to 300 umol/kg, po measured 24 hrs post dose; assay type: functional; design: scale not given: the % may be the effect or the level left
Rattus norvegicus [5] = assay: Increase in plasma TG level in fasted Sprague-Dawley rat at 8 to 300 umol/kg, po measured 2 to 4 hrs post dose; assay type: functional
Rattus norvegicus [6] = assay: Increase in plasma FFAs level in fasted Sprague-Dawley rat at 8 to 300 umol/kg, po measured 2 to 4 hrs post dose; assay type: functional
Rattus norvegicus [7] = assay: Reduction in blood KB level in fasted Sprague-Dawley rat at 8 to 300 umol/kg, po; assay type: functional; design: scale not given: the % may be the effect or the level left
Rattus norvegicus [8] = assay: Reduction in blood glucose in po dosed fasted Sprague-Dawley rat; assay type: functional
Rattus norvegicus [9] = assay: Reduction in blood glucose in fasted Sprague-Dawley rat at 8 to 300 umol/kg, po measured 2 hrs post dose; assay type: functional; design: scale not given: the % may be the effect or the level left
Rattus norvegicus [10] = assay: Inhibition of CPT1 in fasted Sprague-Dawley rat liver mitochondria at 0.6 to 60 umol/kg, po measured 4 hrs post dose; assay type: functional
Rattus norvegicus [11] = assay: Reduction in blood KB in fasted Sprague-Dawley rat at 0.6 to 60 umol/kg, po; assay type: functional; design: scale not given: the % may be the effect or the level left
Rattus norvegicus [12] = assay: Reduction in blood glucose in fasted Sprague-Dawley rat at 0.6 to 60 umol/kg, po; assay type: functional; design: scale not given: the % may be the effect or the level left
Mus musculus [13] = assay: Reduction in glucose AUC in db/db mouse at 19 umol/kg/day, po for 4 days administering last dose 1 hr before glucose load by OGTT test; assay type: functional; design: scale not given: the % may be the effect or the level left
Mus musculus [14] = assay: Reduction in FBG in db/db mouse at 19 umol/kg/day, po for 4 days measured 1 hr post dose after 16 hrs fasting; assay type: functional; design: scale not given: the % may be the effect or the level left
[15] = Toxicity in po dosed Sprague-Dawley rat assessed as hypoglycemic coma; assay type: organism-based; settings: in vivo
Rattus norvegicus [16] = assay: Reduction in blood glucose in po dosed Sprague-Dawley rat; assay type: functional
Rattus norvegicus [17] = assay: Reduction in blood glucose in Sprague-Dawley rat at 600 umol/kg, po; assay type: functional; design: scale not given: the % may be the effect or the level left
Rattus norvegicus [18] = assay: Inhibition of CPT1 in Sprague-Dawley rat liver mitochondria at 0.6 to 60 umol/kg, po measured 4 hrs post dose; assay type: functional
Rattus norvegicus [19] = assay: Reduction in blood KB in Sprague-Dawley rat at 0.6 to 60 umol/kg, po; assay type: functional; design: scale not given: the % may be the effect or the level left
Rattus norvegicus [20] = species: Rattus norvegicus; assay: Reduction in oxidation rate in rat liver mitochondria treated at 0.05% or 0.2% dose through food-admix for 12 weeks by polarographic oxygen uptake method; assay type: functional, organism-based; design: scale not given: the % may be the effect or the level left
Rattus norvegicus [21] = species: Rattus norvegicus; assay: Reduction in oxidation rate in rat liver mitochondria treated at 0.05% or 0.2% dose through food-admix for 12 weeks; assay type: functional, organism-based; design: scale not given: the % may be the effect or the level left
[22] = Inhibition of carnitine palmitoyltransferase in hepatocytes from fasted rat assessed as oxidation of [U-14C]palmitate and production of acetoacetate and BHB; assay type: cell-based; settings: Hepatocyte
Homo sapiens [23] = species: Homo sapiens; assay: Inhibition of carnitine palmitoyltransferase in human fibroblasts assessed as [14]CO2 production from [U-14C]glucose at 5 to 50 uM by radiometric assay; design: scale not given: the % may be the effect or the level left
Homo sapiens [24] = species: Homo sapiens; assay: Inhibition of carnitine palmitoyltransferase in human fibroblasts assessed as [14]CO2 production from [1-14C]pyruvate at 5 to 50 uM by radiometric assay; design: scale not given: the % may be the effect or the level left
Homo sapiens [25] = species: Homo sapiens; assay: Inhibition of carnitine palmitoyltransferase in human fibroblasts assessed as [14]CO2 production at 5 to 50 uM from [U-14C]palmitate by radiometric assay; design: scale not given: the % may be the effect or the level left
Rattus norvegicus [26] = assay: Increase in coronary flow in perfused rat heart at 5 mg/kg, sc administered as single dose administered 120 mins before start of perfusion; assay type: functional; settings: route subcutaneous
[27] = Inhibition of carnitine palmitoyltransferase in rat liver mitochondria assessed as formation of formation of palmitoyl[3H]carnitine from palmitoyl-CoA and [3H]carnitine
[28] = Inhibition of carnitine palmitoyltransferase hemidiaphragms isolated from fasted pretreated rat assessed as reduction of [14]CO2 production from [1-14]-palmitate or [14C]-oleate
Canis familiaris [29] = assay: Reduction in blood glucose in alloxan -treated dog at 7.5 mg/kg, po administered as single dose measured 6 hrs post dose (reference value: 9 mM); assay type: functional, Canis lupus familiaris
Canis familiaris [30] = assay: Reduction in blood glucose in STZ-treated dog at 0.7 to 2 mg/kg/day, po for 7 days measured 6 hrs post dose (reference value: 9 mM); assay type: functional, Canis lupus familiaris
Canis familiaris [31] = assay: Reduction in fasting glucose in STZ-treated dog at 2.5 mg/kg/day, po for 7 days; assay type: functional, Canis lupus familiaris; design: scale not given: the % may be the effect or the level left
Rattus norvegicus [32] = assay: Reduction in KB level in alloxan-treated rat at 25 to 50 mg/kg, po measured 2 to 5 hrs post dose; assay type: functional; design: scale not given: the % may be the effect or the level left
Rattus norvegicus [33] = assay: Suppression of labeled pyruvate conversion to [14C]glucose in Sprague-Dawley rat at 10 to 20 mg/kg, po; assay type: functional; settings: dose mg/kg 10-20
Mus musculus [34] = assay: Reduction in blood glucose in fasted db/db mouse at 50 to 100 mg/kg, po measured 2 to 4 hrs post dose; assay type: functional; design: scale not given: the % may be the effect or the level left
Mus musculus [35] = assay: Reduction in blood glucose in fed db/db mouse at 50 to 100 mg/kg, po measured 2 to 4 hrs post dose; assay type: functional; design: scale not given: the % may be the effect or the level left

Compound: O=C([O-])C1(CCCCCc2ccc(Cl)cc2)CO1.[Na+] (racemic)
Activity (Sus scrofa): <=35%
IC50 [1]: 95.9 µM
IC50 [2]: 10.4 µM
ED50 (Cavia porcellus): 8.7 mg/kg
Activity (Rattus norvegicus [3]): 34%
Activity (Rattus norvegicus [4]): 43%
Activity (Rattus norvegicus [5]): <=290%
Activity (Rattus norvegicus [6]): 300%
Activity (Rattus norvegicus [7]): <=75%
ED50 (Rattus norvegicus [8]): 8.7 mg/kg
Activity (Rattus norvegicus [9]): <=50%
inhibition (INH) (Rattus norvegicus [10]): <=98%
Activity (Rattus norvegicus [11]): 78%
Activity (Rattus norvegicus [12]): <=25%
Activity (Mus musculus [13]): 50%
Activity (Mus musculus [14]): 60%
LD50 [15]: 486 mg/kg
ED50 (Rattus norvegicus [16]): 9 mg/kg
Activity (Rattus norvegicus [17]): 80%
inhibition (INH) (Rattus norvegicus [18]): 99%
Activity (Rattus norvegicus [19]): <=40%
Activity (Rattus norvegicus [20]): < 50%
Activity (Rattus norvegicus [21]): < 80%
IC50 [22]: 5 µM
Activity (Homo sapiens [23]): 250%
Activity (Homo sapiens [24]): 24%
Activity (Homo sapiens [25]): 90%
Activity (Rattus norvegicus [26]): 50%

IC50 [27]: 0.046 µM
EC50 [28]: 1 µM
Compound: CCCCCCCCCCCCCCC1(C(=O)OC)CO1 (racemic) [METHYL PALMOXIRATE]
Activity (Canis familiaris [29]): 6.5 mM
Activity (Canis familiaris [30]): 6.5 mM
Activity (Canis familiaris [31]): 8%
Activity (Rattus norvegicus [32]): 70%
Activity (Rattus norvegicus [33]): 50%
Activity (Mus musculus [34]): 78%
Activity (Mus musculus [35]): 40%
